Earlier results in US20150320814A1, “NUTRACEUTICAL FORMULATION FOR TREATMENT OF ANXIETY AND DEPRESSION” (priority 2014, published 2015).

What was measured:
[1] = system: patients with clinical depression; details: patients with clinical depression treated with nicotinic acid
[2] = system: patients with major depression; details: 125-300 mg of magnesium with each meal and at bedtime
GABA receptors = details: isolated from skullcap
alpha brain waves = details: sixty minutes after oral administration, volunteers
[3] = in vivo

O=C(O)c1cccnc1 [nicotinic acid]
patients showing significant improvements in mood [1]: 14 of 15

[Mg+2] [magnesium]
recovery from major depression [2]: Rapid recovery

O=C(O)[C@H]1O[C@@H](Oc2cc3oc(-c4ccccc4)cc(=O)c3c(O)c2O)[C@H](O)[C@@H](O)[C@@H]1O [baicalin]
activity at GABA receptors (GABA receptors): agonists of GABA receptors

NCCCC(=O)O [GABA, gamma aminobutyric acid]
alpha brain waves by electroencephalogram (alpha brain waves): increases in alpha brain waves

O=c1cc(-c2ccccc2)oc2cc(O)c(O)c(O)c12 [baicalein]
activity at GABA receptors (GABA receptors): agonists of GABA receptors

CCNC(=O)CC[C@H](N)C(=O)O [Theanine, L-theanine]
blood brain barrier passage [3]: passes through the blood brain barrier
